The text below walks through data of patent publication US9181243B2, “Solvate form M of trametinib dimethyl sulfoxide and methods of making and using thereof” (HANGZHOU PUSHAI PHARMACEUTICAL TECHNOLOGY CO., LTD., priority 2014, dated 2015).

SMILES strings stand for the structures. Where two headings read alike, the source gives them in different places.

Data set [1] can be described thus: Storage stability of crystalline form followed by XRPD. Conditions: 44% RH, room temperature, 9 months.
A short description of data set [2]: Isothermal sorption (hygroscopicity). Conditions: between 20-80% RH (relative humidity).
Procedure: Isothermal sorption was performed by TA Instruments Q5000 TGA. The control software is Thermal Advantage and the analysis software is Universal Analysis. Usually 1 to 10 mg of the specimen was placed in the platinum pan. The weight changes of the sample from 20% to 80% to 20% relative humidity were recorded by the TA software and the isothermal sorption plot was obtained by the analysis software.
The conditions of data set [3]: volume distribution.
Procedure: Typical particle size distribution (PSD) is measured using a laser diffraction particle size analyzer, namely Microtrac FLEX 53500. The most common approach for defining the distribution is to report the D10, D50, and D90 values based on a volume distribution. The D50, the median, has been defined above as the diameter where half of the population lies below this value. Similarly, 90 percent of the distribution lies below the D90, and 10 percent of the population lies below the D10.
For data set [4], the system named is advanced melanoma with BRAF V600E/K mutations. Conditions: versus traditional chemotherapy drugs; cited from earlier work.

For the molecule `CC(=O)Nc1cccc(-n2c(=O)n(C3CC3)c(=O)c3c(Nc4ccc(I)cc4F)n(C)c(=O)c(C)c32)c1` [Form M], the “crystalline form change on storage (XRPD pattern)” value (from here on “crystalline form change on storage”) in data set [1] is “no signs of form change”. For the same molecule, in data set [2], the “weight change in isothermal sorption” value was “about 1.07%”. In data set [3] (listed as Example 8), this molecule returned a D10 of 18 μm, a D50 of 40 μm and a D90 of 85 μm. In data set [3] (listed as Example 9), this molecule had a D10 of 9 μm, a D50 of 24 μm and a D90 of 72 μm.

Consider `CC(=O)Nc1cccc(-n2c(=O)n(C3CC3)c(=O)c3c(Nc4ccc(I)cc4F)n(C)c(=O)c(C)c32)c1.C[S+](C)[O-]` [Reference Example 1, Trametinib dimethyl sulfoxide solvate, reference compound], for which the “crystalline form change on storage” value in data set [1] (listed as trametinib dimethyl sulfoxide solvate obtained by the conventional methods) is given as “its patterns changed”. Moreover, the “crystalline form change on storage” value in data set [1] (listed as trametinib dimethyl sulfoxide solvates obtained by conventional methods) was “changed its XRD pattern”. In data set [3], the D10 is given as 3 μm, the D50 is 8 μm and the D90 was found to be 36 μm.

In the case of `CC(=O)Nc1cccc(-n2c(=O)n(C3CC3)c(=O)c3c(Nc4ccc(I)cc4F)n(C)c(=O)c(C)c32)c1` [trametinib, N-{3-[3-cyclopropyl-5-(2-fluoro-4-iodo-phenylamino)-3,4,6,7-tetrahydro-6,8-dimethyl-2,4,7-trioxo-pyrido[4,3-d]pyrimidin-1(2H)-yl]phenyl}acetamide], the therapeutic effect result in data set [4] was “significantly better than traditional chemotherapy drugs”.
